Test results taken from patent publication US12729377B2, “RNAi agents and compositions for inhibiting expression of angiopoietin-like 3 (ANGPTL3), and methods of use” (Arrowhead Pharmaceuticals, Inc., priority 2017, dated 2026).
In the oligonucleotide strings, read from the 5' end, every base follows the letter of its sugar. An asterisk marks phosphorothioate; unmarked linkages are phosphodiester. Other units and linkages are bracketed, terminal groups are in braces. A string of capitals states the bases alone. {NAG37} = tridentate N-acetyl-galactosamine targeting ligand, structure (NAG37)s; [invAb] = inverted abasic unit; m = 2'-O-methyl; f = 2'-fluoro

Columns and labels:
ANGPTL3 gene [1] = assay: Example 6: serum HDL in mice; format: in vivo, C57bl/6 mice
Description: (§1) To assess the in vivo activity of additional ANGPTL3 RNAi agents that are designed to target position 304 on the ANGPTL3 gene, six- to eight-week-old female C57bl/6 mice were used. Pre-dose serum samples were taken at day −1 after a four hour fast. At day 1, each mouse was given a single subcutaneous administration of 200 μl containing 0.5 mg/kg (mpk) of an ANGPTL3 RNAi agent in D5W (dextrose in 5% water), or control (D5W) with no RNAi agent, according to the dosing groups recited in Table 25.
Each of the RNAi agents included a modified sequence and an N-acetyl-galactosamine-containing targeting ligand conjugated to the 5′ terminal end of the sense strand. (See Tables 3, 4, and 5 for modified sequences and targeting ligand structures). The injections were performed between the skin and muscle (i.e. subcutaneous injections) into the loose skin over the neck and shoulder area. Three (3) mice in each group were tested (n=3). Serum was collected on days 8, 15, 22, 30, and on day 43 for certain groups (i.e., Groups 1, 2, 5, and 10 only). Mice were fasted for four hours prior to each collection. ANGPTL3 protein levels in serum were measured by ELISA assay (R&D Systems), according to the manufacturer's recommendations. Triglycerides, total cholesterol, high-density lipoprotein (HDL), and low-density lipoprotein (LDL) in serum were measured on a Cobas® Integra 400 (Roche Diagnostics), according to the manufacturer's recommendations.
(§2) The ANGPTL3 protein levels, triglyceride levels, total cholesterol levels, HDL levels, and LDL levels for each animal were normalized. For normalization, the level of ANGPTL3 protein, triglyceride, HDL, and total cholesterol, respectively, for each animal at a time point, was divided by the pre-treatment level of expression in that animal (in this case at day −1) to determine the ratio of expression “normalized to pre-treatment.” Expression at a specific time point was then normalized to the D5W control group by dividing the “normalized to pre-treatment” ratio for an individual animal by the mean “normalized to pretreatment” ratio of all mice in the D5W control group.

ANGPTL3 gene [2] = assay: Example 9: serum LDL in cynomolgus monkeys; format: in vivo, cynomolgus macaque (Macaca fascicularis); conditions: 2.0 mg/kg single SC injection day 1, cynos, n=3
Description: Additional ANGPTL3 RNAi agents were evaluated in cynomolgus monkeys. On day 1, cynomolgus macaque (Macaca fascicularis) primates (also referred to herein as “cynos”) were administered a single subcutaneous injection of 0.3 mL/kg (approximately 2-3 mL volume, depending on animal mass) containing 2.0 mg/kg of an ANGPTL3 RNAi agent, which included either AD05488, AD05743, AD05775, or AD05841, each formulated in saline. […] ANGPTL3 RNAi agents AD05488, AD05743, and AD05775 included nucleotide sequences designed to target position 304 of the ANGPTL3 gene. ANGPTL3 RNAi agent AD05841 included nucleotide sequences designed to target position 1035 of the ANGPTL3 gene.
Three (3) cynos in each group were tested (n=3). Blood samples were drawn and serum samples were analyzed on days −14 (predose), −7 (predose), 1 (pre-dose), 8, 15, 22, 29, and 35. Cynos were fasted overnight prior to each collection. ANGPTL3 protein levels in serum were measured by ELISA assay (R&D Systems), according to the manufacturer's recommendations. Triglycerides, total cholesterol, high-density lipoprotein (HDL), and low-density lipoprotein (LDL) in serum were measured on a Cobas® Integra 400 (Roche Diagnostics), according to the manufacturer's recommendations.
The ANGPTL3 protein levels, triglyceride levels, total cholesterol levels, HDL levels, and LDL levels for each animal were normalized. For normalization, the level of ANGPTL3 protein, triglyceride, HDL, and total cholesterol, respectively, for each animal at a time point, was divided by the average pre-treatment level of expression in that animal (in this case at days −14, −7, and 1) to determine the ratio of expression “normalized to pre-treatment.”

ANGPTL3 gene [3] = assay: Example 10: serum triglycerides in mice; format: in vivo; conditions: 0.5 mg/kg single SC injection day 1, female C57bl/6 mice, n=3, ratio to D5W control
Description: as §1, with “further” for “additional”, “47.” for “25.”
(§3) Each of the RNAi agents included a modified sequence and an N-acetyl-galactosamine-containing targeting ligand conjugated to the 5′ terminal end of the sense strand. (See Tables 3, 4, and 5 for modified sequences and targeting ligand structures). As noted above, each of the ANGPTL3 RNAi agents dosed in this study included nucleotide sequences designed to target the ANGPTL3 gene at position 304. The injections were performed between the skin and muscle (i.e. subcutaneous injections) into the loose skin over the neck and shoulder area. Three (3) mice in each group were tested (n=3). Serum was collected on days 8, 15, 22, 29, and for some groups on day 36 (i.e., Groups 1, 2, and 9-13 only). Mice were fasted for four hours prior to each collection. ANGPTL3 protein levels in serum were measured by ELISA assay (R&D Systems), according to the manufacturer's recommendations. Triglycerides, total cholesterol, high-density lipoprotein (HDL), and low-density lipoprotein (LDL) in serum were measured on a Cobas® Integra 400 (Roche Diagnostics), according to the manufacturer's recommendations.
as §2

ANGPTL3 gene [4] = assay: Example 10: serum total cholesterol in mice; format: in vivo; conditions: 0.5 mg/kg single SC injection day 1, female C57bl/6 mice, n=3, ratio to D5W control
Description: as §1, with “further” for “additional”, “47.” for “25.”
as §3, §2

## AD05488: RNAi agent duplex: antisense AM07235-AS, sense AM07234-SS (antisense mU*fA*mC*fUmGfAmUfCmAfAmAfUmAfUmGfUmUfGmAfG*mC; sense {NAG37}*[invAb]*mGmCmUmCmAmAmCmAfUfAfUmUmUmGmAmUmCmAmGmUmA*[invAb])
ANGPTL3 gene [1]; Day 8, 0.5 mg/kg single SC injection on day 1, n=3
  Avg HDL, normalized to pre-treatment and control: 0.783
ANGPTL3 gene [1]; Day 15, 0.5 mg/kg single SC injection on day 1, n=3
  Avg HDL, normalized to pre-treatment and control: 0.763
ANGPTL3 gene [1]; Day 22, 0.5 mg/kg single SC injection on day 1, n=3
  Avg HDL, normalized to pre-treatment and control: 0.793
ANGPTL3 gene [1]; Day 30, 0.5 mg/kg single SC injection on day 1, n=3
  Avg HDL, normalized to pre-treatment and control: 0.956
ANGPTL3 gene [1]; Day 43, 0.5 mg/kg single SC injection on day 1, n=3
  Avg HDL, normalized to pre-treatment and control: 1.088
ANGPTL3 gene [2]; Day 8
  Average LDL Normalized to Pre-Treatment: 0.971
ANGPTL3 gene [2]; Day 15
  Average LDL Normalized to Pre-Treatment: 0.913
ANGPTL3 gene [2]; Day 22
  Average LDL Normalized to Pre-Treatment: 0.949
ANGPTL3 gene [2]; Day 29
  Average LDL Normalized to Pre-Treatment: 0.853
ANGPTL3 gene [2]; Day 35
  Average LDL Normalized to Pre-Treatment: 0.845
ANGPTL3 gene [3]; Day 8
  Average Triglycerides Normalized to Pre-Treatmen and Control: 0.646
ANGPTL3 gene [3]; Day 15
  Average Triglycerides Normalized to Pre-Treatmen and Control: 0.669
ANGPTL3 gene [3]; Day 22
  Average Triglycerides Normalized to Pre-Treatmen and Control: 0.723
ANGPTL3 gene [3]; Day 29
  Average Triglycerides Normalized to Pre-Treatmen and Control: 0.739
ANGPTL3 gene [3]; Day 36
  Average Triglycerides Normalized to Pre-Treatmen and Control: 0.843
ANGPTL3 gene [4]; Day 8
  Average Total Cholesterol Normalized to Pre-Treatment and Control: 0.659
ANGPTL3 gene [4]; Day 15
  Average Total Cholesterol Normalized to Pre-Treatment and Control: 0.808
ANGPTL3 gene [4]; Day 22
  Average Total Cholesterol Normalized to Pre-Treatment and Control: 0.763
ANGPTL3 gene [4]; Day 29
  Average Total Cholesterol Normalized to Pre-Treatment and Control: 0.743
ANGPTL3 gene [4]; Day 36
  Average Total Cholesterol Normalized to Pre-Treatment and Control: 0.824
